Results published in paper PMC11643962, “Exploring 4,7-Disubstituted Pyrimido[4,5-d]pyrimidines as Antiviral and Anticancer Agents” (Molecules, 2024).

How the values were obtained:
[1] = tested on: HCoV-229E; assay: Antiviral CPE reduction assay, HCoV-229E in HEL299 cells; type: cell-based, human coronavirus 229E; details: Human coronavirus 229E, HEL 299, MTS, mean ± SD of two or three independent experiments
[2] = tested on: NCI-H460 (lung carcinoma); assay: MTS proliferation assay, NCI-H460; details: Homo sapiens, NCI-H460, 72 h, read-out: Anti-Proliferative Activity (IC50) NCI-H460
[3] = tested on: variety of viruses (HSV-1, influenza viruses, yellow fever virus, Zika virus, RSV, HCoV-229E, HCoV-OC43, HCoV-NL63); type: cell-based; details: CPE reduction assays, virus panel
[4] = tested on: yellow fever virus (YFV 17D); assay: microbe, parasite or virus in culture; type: cell-based; details: Yellow fever virus, Vero C1008, read-out: Antiviral activity (EC50) YFV 17D
[5] = tested on: LN-229 (glioblastoma); assay: MTS proliferation assay, LN-229; details: Homo sapiens, LN-229, 72 h, read-out: Anti-Proliferative Activity (IC50) LN-229
[6] = tested on: K-562 (chronic myeloid leukemia); assay: MTS proliferation assay, K-562; details: Homo sapiens, K562, 72 h, read-out: Anti-Proliferative Activity (IC50) K-562
[7] = tested on: respiratory syncytial virus A (RSV A Long); assay: Antiviral CPE reduction assay, RSV A Long in Hep2 cells; type: cell-based; details: human respiratory syncytial virus, HEp-2; Hep2 cells; CPE reduction, MTS; mean ± SD of two or three independent experiments; read-out: Antiviral Activity (EC50) RSV A Long
[8] = tested on: influenza B (B/Ned/537/05); assay: Antiviral CPE reduction assay, influenza B in MDCK cells; type: cell-based, influenza B virus; details: Influenza B virus, MDCK, read-out: Antiviral Activity (EC50) Influenza B
[9] = tested on: HL-60 (acute myeloid leukemia); assay: MTS proliferation assay, HL-60; details: Homo sapiens, HL-60, 72 h, read-out: Anti-Proliferative Activity (IC50) HL-60
[10] = tested on: DND-41 (acute lymphoblastic leukemia); assay: MTS proliferation assay, DND-41; details: Homo sapiens, DND41, 72 h, read-out: Anti-Proliferative Activity (IC50) DND-41
[11] = tested on: HCT-116 (colorectal carcinoma); assay: MTS proliferation assay, HCT-116; details: Homo sapiens, HCT-116, 72 h, read-out: Anti-Proliferative Activity (IC50) HCT-116
[12] = tested on: HCoV-NL63; assay: Antiviral CPE reduction assay, HCoV-NL63 in Hep3B cells; type: cell-based, human coronavirus NL63; details: Human coronavirus NL63, MTS, mean ± SD of two or three independent experiments
[13] = in vitro; details: dog
[14] = in vitro; details: African green monkey
[15] = tested on: influenza A/H3N2 (A/HK/7/87); assay: Antiviral CPE reduction assay, influenza A/H3N2 in MDCK cells; type: cell-based, influenza A virus; details: Influenza A virus, H3N2; MDCK cells; CPE reduction, MTS; mean ± SD of two or three independent experiments; read-out: Antiviral Activity (EC50) Influenza H3N2
[16] = tested on: Zika virus (ZikV mr766); assay: Antiviral CPE reduction assay, Zika virus mr766 in VeroE6 cells; type: cell-based; details: Zika virus, Vero C1008, MTS, mean ± SD, no unit printed on the supplement page (Table 2 of the same screen is in µM)
[17] = tested on: influenza A/H1N1 (A/Ned/378/05); assay: Antiviral CPE reduction assay, influenza A/H1N1 in MDCK cells; type: cell-based, influenza A virus; details: Influenza A virus, H1N1; MDCK cells; CPE reduction, MTS; mean ± SD of two or three independent experiments; read-out: Antiviral Activity (EC50) Influenza H1N1
[18] = tested on: Z-138 (non-Hodgkin lymphoma); assay: MTS proliferation assay, Z-138; details: Homo sapiens, Z-138, 72 h, read-out: Anti-Proliferative Activity (IC50) Z-138
[19] = tested on: Capan-1 (pancreatic adenocarcinoma); assay: MTS proliferation assay, Capan-1; details: Homo sapiens, CAPAN-1, 72 h, read-out: Anti-Proliferative Activity (IC50) Capan-1
[20] = tested on: herpes simplex virus-1 (HSV-1 KOS); assay: Antiviral CPE reduction assay, HSV-1 KOS in HEL299 cells; type: cell-based; details: Human alphaherpesvirus 1, HEL 299, MTS, mean ± SD, no unit printed on the supplement page (Table 2 of the same screen is in µM)
[21] = tested on: HCoV-OC43; assay: Antiviral CPE reduction assay, HCoV-OC43 in HEL299 cells; type: cell-based, human coronavirus OC43; details: Betacoronavirus 1, OC43, HEL 299, MTS, mean ± SD of two or three independent experiments
[22] = in vitro; details: human
[23] = in vitro; details: human; remark: listed apart in the source
[24] = in vitro; details: human; remark: listed apart in the source

| Structure (SMILES) | EC50 [1] [µM] | IC50 [2] [µM] | melting point [°C] | EC50 [4] [µM] | IC50 [5] [µM] | IC50 [6] [µM] | EC50 [7] [µM] | EC50 [8] [µM] | IC50 [9] [µM] | IC50 [10] [µM] | IC50 [11] [µM] | EC50 [12] [µM] | CC50 [13] [µM] | CC50 [14] [µM] | EC50 [15] [µM] | EC50 [16] [µM] | EC50 [17] [µM] | IC50 [18] [µM] | IC50 [19] [µM] | EC50 [20] [µM] | also measured |
| --- | --- | --- | --- | --- | --- | --- | --- | --- | --- | --- | --- | --- | --- | --- | --- | --- | --- | --- | --- | --- | --- |
| C#Cc1cccc(Nc2ncnc3nc(N4CCN(C)CC4)ncc23)c1 [Compound 7h, N-(3-ethynylphenyl)-7-(4-methylpiperazin-1-yl)pyrimido[4,5-d]pyrimidin-4-amine] | > 50 | > 100 | 290 | > 50 | 97.1 ± 1.5 | 52.3 ± 4.4 | > 50 | > 50 | 79.1 ± 4.6 | 66.5 ± 0.8 | > 100 | > 50 | > 50 | > 50 | > 50 | > 50 | > 50 | 52.6 ± 1.4 | > 100 | > 50 | antiviral activity (in words) [3]: inactive; EC50 [21]: > 50 µM |
| c1cc2c(c(Nc3ncnc4nc(NC5CC5)ncc34)c1)CCCC2 [Compound 7c, N^2-cyclopropyl-N^5-(5,6,7,8-tetrahydronaphthalen-1-yl)pyrimido[4,5-d]pyrimidine-2,5-diamine] | > 50 | > 100 | 189 | > 50 | > 100 | > 100 | > 50 | > 50 | > 100 | > 100 | > 100 | > 50 | > 50 | > 50 | > 50 | > 50 | > 50 | > 100 | > 100 | > 50 | antiviral activity (in words) [3]: inactive; CC50 [22]: > 50 µM; CC50 [23]: > 50 µM; CC50 [24]: > 50 µM; EC50 [21]: > 50 µM |
| CN1CCN(c2ncc3c(Nc4cccnc4)ncnc3n2)CC1 [Compound 7k, 7-(4-methylpiperazin-1-yl)-N-(pyridin-3-yl)pyrimido[4,5-d]pyrimidin-4-amine] | > 50 | > 100 | > 300 | > 50 | > 100 | > 100 | > 50 | > 50 | > 100 | > 100 | > 100 | > 50 | > 50 | > 50 | > 50 | > 50 | > 50 | > 100 | > 100 | > 50 | antiviral activity (in words) [3]: inactive; CC50 [22]: > 50 µM; CC50 [23]: > 50 µM; CC50 [24]: > 50 µM; EC50 [21]: > 50 µM |
| CN1CCN(c2ncc3c(Nc4cccc5c4CCC5)ncnc3n2)CC1 [Compound 7d, N-(2,3-dihydro-1H-inden-4-yl)-7-(4-methylpiperazin-1-yl)pyrimido[4,5-d]pyrimidin-4-amine] | > 50 | > 100 | > 250 | > 50 | > 100 | 61.3 ± 2.4 | > 50 | > 50 | ≥ 71 | 80.6 ± 10.2 | > 100 | > 50 | > 50 | > 50 | > 50 | > 50 | > 50 | 56.5 ± 1.2 | > 100 | > 50 | antiviral activity (in words) [3]: inactive; CC50 [22]: > 50 µM; CC50 [23]: > 50 µM; CC50 [24]: > 50 µM; EC50 [21]: > 50 µM |
| c1cncc(Nc2ncnc3nc(NC4CC4)ncc23)c1 [Compound 7m, N^2-cyclopropyl-N^5-(pyridin-3-yl)pyrimido[4,5-d]pyrimidine-2,5-diamine] | > 50 | > 100 | 243 | > 50 | > 100 | > 100 | > 50 | > 50 | > 100 | > 100 | > 100 | > 50 | > 50 | > 50 | > 50 | > 50 | > 50 | > 100 | > 100 | > 50 | CC50 [22]: > 50 µM; CC50 [23]: > 50 µM; CC50 [24]: > 50 µM; EC50 [21]: > 50 µM |
